Measurements reported in ChEMBL document CHEMBL2021761, “Imidazonaphthyridine systems (part 2): Functionalization of the phenyl ring linked to the pyridine pharmacophore and its replacement by a pyridinone ring produces intriguing differences in cytocidal activity” (Eur J Med Chem, 2012).
Active and inactive are the calls of the source. The calls are words filed in the database; no cut-off is given here.

Assays:
M21 = experiment: Cytocidal activity against human M21 cells assessed as growth inhibition after 48 hrs by SRB assay; assay type: functional; settings: M21, 48 h
HT-29 = experiment: Cytocidal activity against human HT-29 cells assessed as growth inhibition after 48 hrs by SRB assay; assay type: functional; settings: HT-29, 48 h
MCF7 = experiment: Cytocidal activity against human MCF7 cells assessed as growth inhibition after 48 hrs by SRB assay; assay type: functional; settings: MCF7, 48 h
HT-1080 = experiment: Cytocidal activity against human HT1080 cells assessed as growth inhibition after 48 hrs by SRB assay; assay type: functional; settings: HT-1080, 48 h
[1] = molecular target: T1, DNA topoisomerase 1 (Homo sapiens) (UniProt P11387); experiment: Inhibition of recombinant human topoisomerase 1-mediated unwinding of supercoiled plasmid DNA assessed as DNA intercalation at 25 uM after 2 hrs by gel electrophoresis
T1 sequence (whole entry): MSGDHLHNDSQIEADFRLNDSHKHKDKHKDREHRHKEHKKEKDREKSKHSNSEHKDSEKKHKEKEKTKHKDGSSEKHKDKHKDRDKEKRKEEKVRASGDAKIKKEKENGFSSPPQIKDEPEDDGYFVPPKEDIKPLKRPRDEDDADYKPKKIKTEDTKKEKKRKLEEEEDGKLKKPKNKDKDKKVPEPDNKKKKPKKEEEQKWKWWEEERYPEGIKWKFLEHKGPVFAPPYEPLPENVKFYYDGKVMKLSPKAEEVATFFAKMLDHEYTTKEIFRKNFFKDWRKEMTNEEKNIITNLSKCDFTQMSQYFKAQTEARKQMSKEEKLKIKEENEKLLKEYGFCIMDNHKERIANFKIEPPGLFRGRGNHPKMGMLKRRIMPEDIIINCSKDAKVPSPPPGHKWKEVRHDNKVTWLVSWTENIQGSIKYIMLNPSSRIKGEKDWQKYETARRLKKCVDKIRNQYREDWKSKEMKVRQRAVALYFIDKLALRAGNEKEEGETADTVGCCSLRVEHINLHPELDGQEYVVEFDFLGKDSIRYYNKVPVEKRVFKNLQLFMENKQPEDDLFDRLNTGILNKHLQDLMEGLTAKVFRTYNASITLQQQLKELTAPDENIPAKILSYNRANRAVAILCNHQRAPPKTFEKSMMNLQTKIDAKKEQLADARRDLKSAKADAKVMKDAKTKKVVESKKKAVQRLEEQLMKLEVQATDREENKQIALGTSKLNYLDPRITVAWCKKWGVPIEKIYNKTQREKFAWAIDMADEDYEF

[2] = molecular target: T1, DNA topoisomerase 1 (Homo sapiens); experiment: Inhibition of recombinant human topoisomerase 1-mediated unwinding of supercoiled plasmid DNA assessed as DNA intercalation at 100 to 200 uM after 2 hrs by gel electrophoresis
[3] = molecular target: T1, DNA topoisomerase 1 (Homo sapiens); experiment: Inhibition of recombinant human topoisomerase 1-mediated unwinding of supercoiled plasmid DNA assessed as DNA intercalation at 50 uM after 2 hrs by gel electrophoresis
[4] = Dissociation constant, pKa of the compound; assay type: physicochemical
[5] = molecular target: T1, DNA topoisomerase 1 (Homo sapiens); experiment: Inhibition of recombinant human topoisomerase 1-mediated unwinding of supercoiled plasmid DNA assessed as formation of nicked open circular DNA at 12.5 to 100 uM after 2 hrs by gel electrophoresis
[6] = molecular target: T1, DNA topoisomerase 1 (Homo sapiens); experiment: Inhibition of recombinant human topoisomerase 1-mediated unwinding of supercoiled plasmid DNA assessed as DNA intercalation at 12.5 to 100 uM by gel electrophoresis; settings: TDE = time-dependent effect
[7] = molecular target: T1, DNA topoisomerase 1 (Homo sapiens); experiment: Inhibition of recombinant human topoisomerase 1-mediated unwinding of supercoiled plasmid DNA assessed as DNA intercalation after 2 hrs by gel electrophoresis

Row | SMILES | GI50 (M21) [µM] | GI50 (HT-29) [µM] | GI50 (MCF7) [µM] | GI50 (HT-1080) [µM] | further results
1 | CCOC(=O)c1c[nH]c2ccn3cc(C)nc3c2c1=O | 88.5 | 63.2 | 98.5 | 72.9 | –
2 | CCOC(=O)c1c[nH]c2ccn3cc(C(C)C)nc3c2c1=O | 26.9 | 43.7 | 37.3 | 22 | –
3 | Cc1ccc(-c2ccc3ccn4ccnc4c3n2)cc1 | 6.4 | 5.1 | 7.6 | 10.7 | inhibition [1]: inactive; inhibition [2]: inactive; inhibition [3]: inactive
4 | COc1ccc(-c2c[nH]c3ccn4ccnc4c3c2=O)cc1 | 1.3 | 8.6 | 1.1 | 1.2 | inhibition [1]: inactive; inhibition [2]: inactive; inhibition [3]: inactive
5 | O=C1CCCc2nc3c(ccn4ccnc34)cc21 | – | – | – | – | pKa [4]: 2
6 | c1ccc(-c2ccc3ccn4ccnc4c3n2)cc1 | – | – | – | 54.7 | inhibition [5]: inactive; inhibition [1]: Active; inhibition [6]: tde; inhibition [3]: Active; pKa [4]: 1.96
7 | COc1cc(NS(C)(=O)=O)ccc1Nc1c2ccccc2nc2ccccc12 [AMSACRINE] | – | – | 5.6 | 1.6 | –
8 | c1ccc2cc3nc4c(ccn5ccnc45)cc3cc2c1 | – | – | – | – | pKa [4]: 2.43
9 | c1cn2ccc3cc4c(nc3c2n1)CCCC4 | – | – | – | – | pKa [4]: 4.59
10 | CCOC(=O)c1c[nH]c2ccn3cc(-c4ccccc4)nc3c2c1=O | 13.4 | 21.6 | 20.5 | 10.4 | –
11 | COc1cc(-c2c[nH]c3ccn4ccnc4c3c2=O)cc(OC)c1OC | 82.7 | 62.7 | 71.9 | 92.5 | –
12 | c1ccc2c(c1)CCc1nc3c(ccn4ccnc34)cc1-2 | – | – | – | – | pKa [4]: 3.53
13 | Cc1cc2ccn3ccnc3c2nc1C | – | – | – | – | pKa [4]: 4.63
14 | O=c1c(-c2ccccc2)c[nH]c2c1ccn1ccnc21 | > 100 | > 100 | > 100 | > 100 | –
15 | CCOC(=O)c1c[nH]c2ccn3ccnc3c2c1=O | 0.8 | 4.5 | 0.3 | 0.3 | inhibition [1]: inactive; inhibition [2]: inactive; inhibition [3]: inactive
16 | c1ccc2c(c1)CCc1cc3ccn4ccnc4c3nc1-2 | – | – | – | – | pKa [4]: 2.43

Row | SMILES | GI50 (M21) [µM] | GI50 (HT-29) [µM] | GI50 (MCF7) [µM] | GI50 (HT-1080) [µM] | further results
17 | CCOC(=O)c1c[nH]c2c(ccn3cc(C)nc23)c1=O | > 100 | > 100 | > 100 | > 100 | –
18 | CCOC(=O)c1c[nH]c2c(ccn3cc(-c4cccc(OC)c4)nc23)c1=O | > 100 | > 100 | > 100 | > 100 | –
19 | CCOC(=O)c1c[nH]c2c(ccn3ccnc23)c1=O | > 100 | > 100 | > 100 | > 100 | –
20 | COc1ccc(-c2ccc3ccn4ccnc4c3n2)cc1 | 5 | 5.1 | 6.9 | 5.2 | inhibition [1]: Active; inhibition [3]: Active
21 | CCOC(=O)C1CCc2nc3c(ccn4ccnc34)cc2C1 (centres undefined) | – | – | – | – | pKa [4]: 4.08
22 | CCBr | – | – | – | – | inhibition [7]: Active
23 | CCOC(=O)c1c[nH]c2c(ccn3cc(-c4ccccc4)nc23)c1=O | > 100 | > 100 | > 100 | > 100 | –
24 | COc1ccc(-c2c[nH]c3c(ccn4ccnc34)c2=O)cc1 | > 100 | > 100 | > 100 | > 100 | –
25 | COc1cc(-c2c[nH]c3c(ccn4ccnc34)c2=O)cc(OC)c1OC | > 100 | > 100 | > 100 | > 100 | –
26 | Cc1ccc2ccn3ccnc3c2n1 | – | – | – | – | pKa [4]: 4.23
27 | COc1cc(-c2ccc3ccn4ccnc4c3n2)cc(OC)c1OC | 24.5 | 27.8 | 30.7 | 29.2 | inhibition [5]: inactive; inhibition [1]: Active; inhibition [6]: tde; inhibition [3]: Active
28 | CCOC(=O)c1c[nH]c2ccn3cc(-c4cccc(OC)c4)nc3c2c1=O | 93.4 | 71.1 | 98 | > 100 | –
29 | Clc1ccc(-c2ccc3ccn4ccnc4c3n2)cc1 | 4.7 | 3.4 | 7.1 | 6.9 | inhibition [1]: Active; inhibition [3]: Active
30 | O=c1c(-c2ccccc2)c[nH]c2ccn3ccnc3c12 | 40.7 | 34.2 | 20 | 19.7 | –
31 | CCOC(=O)c1c[nH]c2c(ccn3cc(C(C)C)nc23)c1=O | > 100 | > 100 | > 100 | > 100 | –
